Data from patent US12257247B2 (Monte Rosa Therapeutics AG, priority 2023, dated 2025).
Like-named read-outs stand apart in the source and are kept apart here.

Molecular target: T1, VAV1 (Homo sapiens, UniProt P15498+Q96SW2)
T1 construct: A heterozygous VAV1 C-terminal HiBiT knock-in pool was generated at Monte Rosa Therapeutics from a clonal Jurkat cell; endogenous in cells; host or cells: Jurkat clone stably expressing LgBiT, homozygous GSPT1-G575N; heterozygous VAV1-HiBiT knock-in pool
Assay: VAV1 degradation activity, VAV1-HiBiT knock-in Jurkat luminescence assay (Example A, Table 1)
Assay type: cell-based
Conditions: VAV1-HiBiT knock-in Jurkat cells, luminescence read at 6 and 24 hours after compound addition; for Dmax: Jurkat
Outline: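 Luminescence was measured at 6 and 24 h after adding compound (10 μM stock) to VAV1-HiBiT knock-in Jurkat cells, which had been pre-incubated ~16 h at 37° C. in RPMI/10% FBS containing Endurazine. EC50 values came from control-normalised responses fitted to a 3-parameter logistic model with hillslope fixed at 1.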

[1] = read-out: VAV1 DC50 (nM), class

Row | Dmax (read-out: VAV1 Dmax %) | Dmax (read-out: VAV1 Dmax %, class) | DC50 (read-out: VAV1 DC50) | DC50 [1] | SMILES
1 | 98.5% | > 90% | 7.51 nM | ≤ 100 nM | CC1Cc2cc(-c3cccc(C4CCC(=O)NC4=O)c3Cl)ccc2N1 (centres unmarked) [Compound 500, 3-(2-chloro-3-(2-methylindolin-5-yl)phenyl)piperidine-2,6-dione]
2 | 97.7% | > 90% | 8.19 nM | ≤ 100 nM | Cn1ccc(CN2C(=O)CCc3cc(-c4cccc(C5CCC(=O)NC5=O)c4Cl)ccc32)n1 (centres unmarked) [Compound 501, 3-(2-chloro-3-(1-((1-methyl-1H-pyrazol-3-yl)methyl)-2-oxo-1,2,3,4-tetrahydroquinolin-6-yl)phenyl)piperidine-2,6-dione]
3 | 97.8% | > 90% | 3.95 nM | ≤ 100 nM | Cn1ccc(CN2C(=O)COc3cc(-c4cccc(C5CCC(=O)NC5=O)c4Cl)ccc32)n1 (centres unmarked) [Compound 502, 3-(2-chloro-3-(4-((1-methyl-1H-pyrazol-3-yl)methyl)-3-oxo-3,4-dihydro-2H-benzo[b][1,4]oxazin-7-yl)phenyl)piperidine-2,6-dione]
4 | 90% | 60 to 90% | 4.73 nM | ≤ 100 nM | CN1Cc2cc(-c3cccc(C4CCC(=O)NC4=O)c3Cl)ccc2N(Cc2ccn(C)n2)C1=O (centres unmarked) [Compound 503, 3-(2-chloro-3-(3-methyl-1-((1-methyl-1H-pyrazol-3-yl)methyl)-2-oxo-1,2,3,4-tetrahydroquinazolin-6-yl)phenyl)piperidine-2,6-dione]
5 | 96.7% | > 90% | 5.5 nM | ≤ 100 nM | Cn1cnc(CN2C(=O)Cc3cc(-c4cccc(C5CCC(=O)NC5=O)c4Cl)ccc32)c1 (centres unmarked) [Compound 504, 3-(2-chloro-3-(1-((1-methyl-1H-imidazol-4-yl)methyl)-2-oxoindolin-5-yl)phenyl)piperidine-2,6-dione]
6 | 80.7% | 60 to 90% | 86.9 nM | ≤ 100 nM | O=C1CCC(c2cccc(-c3ccc4c(c3)CC(=O)N4Cc3cocn3)c2Cl)C(=O)N1 (centres unmarked) [Compound 505, 3-(2-chloro-3-(1-(oxazol-4-ylmethyl)-2-oxoindolin-5-yl)phenyl)piperidine-2,6-dione]
7 | 63.7% | 60 to 90% | 1770 nM | > 1000 nM | O=C1CCC(c2cccc(-c3ccc4c(c3)CC(=O)N4CC3CC3)c2Cl)C(=O)N1 (centres unmarked) [Compound 506, 3-(2-chloro-3-(1-(cyclopropylmethyl)-2-oxoindolin-5-yl)phenyl)piperidine-2,6-dione]
8 | 91.8% | > 90% | 28.6 nM | ≤ 100 nM | Cn1ccc(Cn2c(=O)oc3cc(-c4cccc(C5CCC(=O)NC5=O)c4Cl)ccc32)n1 (centres unmarked) [Compound 507, 3-(2-chloro-3-(3-((1-methyl-1H-pyrazol-3-yl)methyl)-2-oxo-2,3-dihydrobenzo[d]oxazol-6-yl)phenyl)piperidine-2,6-dione]
9 | 92% | > 90% | 63.2 nM | ≤ 100 nM | Cn1cncc1Cn1ncc2cc(-c3cccc(C4CCC(=O)NC4=O)c3Cl)ccc21 (centres unmarked) [Compound 508, 3-(2-chloro-3-(1-((1-methyl-1H-imidazol-5-yl)methyl)-1H-indazol-5-yl)phenyl)piperidine-2,6-dione]
10 | 97.8% | > 90% | 3.85 nM | ≤ 100 nM | Cn1cccc(N2CCc3cc(-c4cccc(C5CCC(=O)NC5=O)c4Cl)ccc32)c1=O (centres unmarked) [Compound 509, 3-(2-chloro-3-(1-(1-methyl-2-oxo-1,2-dihydropyridin-3-yl)indolin-5-yl)phenyl)piperidine-2,6-dione]
11 | 89.2% | 60 to 90% | 78.6 nM | ≤ 100 nM | Cn1ccc(Cc2noc3cc(-c4cccc(C5CCC(=O)NC5=O)c4Cl)ccc23)n1 (centres unmarked) [Compound 510, 3-(2-chloro-3-(3-((1-methyl-1H-pyrazol-3-yl)methyl)benzo[d]isoxazol-6-yl)phenyl)piperidine-2,6-dione]
